In the assay the test system is cigarette smoke-induced influx of neutrophilic granulocytes into the lung tissue. Briefly: Inhibition of the smoke-induced accumulation of granulocytes in the lung tissue (MPO activity). The following applies: for ED50: Rattus norvegicus, male Sprague-Dawley rats, 5 days cigarette smoke exposure, intratracheal dose daily 30 min before smoke, lung tissue MPO, linear regression, read-out: ID50 (dosage which led to a 50% inhibition of the MPO activity). The assay is classed as in vivo, rats (strain: Sprague-Dawley). The text has this: Inhibition of the Smoke-Induced Accumulation of Granulocytes in the Lung Tissue Lung indications: Inhibition of the cigarette smoke-induced influx of neutrophilic granulocytes into the lung tissue by the above-mentioned EGF-receptor kinase inhibitor. Male rats (strain: Sprague-Dawley) weighing from 250-300 g were exposed for 5 days to the smoke from 8 cigarettes per day. The animals in the group treated with compound A, anaesthetised with isofluran, were given an intratracheal dose of 0.03 or 0.1 mg/kg of compound A in a volume of 0.05 ml each day 30 min before the start of the exposure to smoke. On the last day of the test the animals were killed 4 hours after the last exposure to smoke and the lung tissue was removed. A sample of 70-200 mg was taken from each lung and placed in a test tube prepared with 1 ml of 0.5% hexadecyltrimethylammonium bromide. The samples were homogenised for 15 sec using an Ultraturrax. The homogenised samples were centrifuged at 15700 g in an Eppendorf bench centrifuge for 5 min at ambient temperature. […] of the supernatant was removed and mixed with […] of phosphate buffer (50 mmol/l) containing 0.197 mg/ml of O-dianisidine dihydrochloride. After 10 minutes' incubation at ambient temperature the absorption was measured with a spectral photometer at a wavelength of 450 nm. The dosage which led to a 50% inhibition of the MPO activity (=ID50) was determined by linear regression. Exposure to cigarette smoke in rats led to an influx of neutrophilic granulocytes into the lung tissue, measured by the content of myeloperoxidase in the tissues, which is specific for neutrophilic granulocytes.

On to `C#Cc1cccc(Nc2ncnc3cc(OC)c(OC4CCN(C)CC4)cc23)c1` [M, 4-[(3-ethynyl-phenyl)amino]-6-(1-methyl-piperidin-4-yloxy)-7-methoxy-quinazoline], for which the ED50 was found to be 0.07 mg/kg.

With `COc1cc2ncnc(Nc3ccc(F)c(Cl)c3)c2cc1OC1CCN(CCNC(C)=O)CC1` [C, 4-[(3-chloro-4-fluoro-phenyl)amino]-6-[1-(2-acetylamino-ethyl)-piperidin-4-yloxy]-7-methoxy-quinazoline], the ED50 was 0.03 mg/kg.

With `COc1cc2ncnc(Nc3ccc(F)c(Cl)c3)c2cc1O[C@H]1CC[C@@H](N(C)C(=O)N2CCCCC2)CC1` [H, 4-[(3-chloro-4-fluoro-phenyl)amino]-6-(cis-4-{N-[(piperidin-1-yl)carbonyl]-N-methyl-amino}-cyclohexan-1-yloxy)-7-methoxy-quinazoline], the ED50 turned out to be 0.15 mg/kg.

Regarding `COCCOc1cc2ncnc(Nc3ccc(F)c(Cl)c3)c2cc1OC1CCN(C(=O)N2CCOCC2)CC1` [L, 4-[(3-chloro-4-fluoro-phenyl)amino]-6-{1-[(morpholin-4-yl)carbonyl]-piperidin-4-yloxy}-7-(2-methoxy-ethoxy)-quinazoline], the ED50 is 0.4 mg/kg.

Turning to `COc1cc2ncnc(Nc3ccc(F)c(Cl)c3)c2cc1O[C@H]1CC[C@@H](N(C)C(=O)N2CCN(C)CC2)CC1` [I, 4-[(3-chloro-4-fluoro-phenyl)amino]-6-(cis-4-{N-[(4-methyl-piperazin-1-yl)carbonyl]-N-methyl-amino}-cyclohexan-1-yloxy)-7-methoxy-quinazoline], the ED50 turned out to be 0.15 mg/kg.

As for `COCC(=O)N1CCC(Oc2cc3c(Nc4ccc(F)c(Cl)c4)ncnc3cc2OC)CC1` [B, 4-[(3-chloro-4-fluoro-phenyl)amino]-6-{1-[(methoxymethyl)carbonyl]-piperidin-4-yloxy}-7-methoxy-quinazoline], the ED50 was determined as 0.01 mg/kg.

In the case of `COc1cc2ncnc(Nc3ccc(F)c(Cl)c3)c2cc1O[C@H]1CC[C@@H](NC(=O)N2CCOCC2)CC1` [K, 4-[(3-chloro-4-fluoro-phenyl)amino]-6-{cis-4-[(morpholin-4-yl)carbonylamino]-cyclohexan-1-yloxy}-7-methoxy-quinazoline], the ED50 amounted to 0.13 mg/kg.

With `COc1cc2ncnc(Nc3ccc(F)c(Cl)c3)c2cc1O[C@H]1CC[C@@H](NC(C)=O)CC1` [F, 4-[(3-chloro-4-fluoro-phenyl)amino]-6-(cis-4-acetylamino-cyclohexan-1-yloxy)-7-methoxy-quinazoline], the ED50 came to 0.015 mg/kg.

As to `COc1cc2ncnc(Nc3ccc(F)c(Cl)c3)c2cc1OC1CCN(C(=O)N2CCOCC2)CC1` [A, 4-[(3-chloro-4-fluoro-phenyl)amino]-6-{1-[(morpholin-4-yl)carbonyl]-piperidin-4-yloxy}-7-methoxy-quinazoline], the ED50 worked out at 0.1 mg/kg. Also, the “inhibition of the smoke-induced accumulation of granulocytes” value (rats, intratracheal 0.03 or 0.1 mg/kg daily, 5 days smoke exposure, myeloperoxidase content of lung tissue) is recorded as “significant (p<0.005) inhibition”.

As for `COc1cc2ncnc(Nc3ccc(F)c(Cl)c3)c2cc1O[C@H]1CC[C@@H](N(C)C(=O)C2CCOCC2)CC1` [D, 4-[(3-chloro-4-fluoro-phenyl)amino]-6-(cis-4-{N-[(tetrahydropyran-4-yl)carbonyl]-N-methyl-amino}-cyclohexan-1-yloxy)-7-methoxy-quinazoline], the ED50 amounted to 0.02 mg/kg.

In the case of `C#Cc1cccc(Nc2ncnc3cc(OC)c(OC4CCN(C(=O)OC(C)(C)C)CC4)cc23)c1` [G, 4-[(3-ethynyl-phenyl)amino]-6-[1-(tert.-butyloxycarbonyl)-piperidin-4-yloxy]-7-methoxy-quinazoline], the ED50 was determined as 0.01 mg/kg.

For `COc1cc2ncnc(Nc3ccc(F)c(Cl)c3)c2cc1O[C@H]1CC[C@@H](N(C)S(=O)(=O)N2CCOCC2)CC1` [E, 4-[(3-chloro-4-fluoro-phenyl)amino]-6-(cis-4-{N-[(morpholin-4-yl)sulphonyl]-N-methyl-amino}-cyclohexan-1-yloxy)-7-methoxy-quinazoline], the ED50 is 0.4 mg/kg.
